According to the NIST ThermoML archive (doi:10.1007/s10765-008-0444-7):
Numbers after ± are expanded uncertainties.

What was measured:
[1] = xn = mol fraction of the nth substance listed; settings: 101 kPa, Liquid; for viscosity: Capillary tube (Ostwald / Ubbelohde) method; for mass density: Pycnometric method
[2] = 101.3 kPa, Liquid; for viscosity: Capillary tube (Ostwald / Ubbelohde) method; for mass density: Pycnometric method

Clc1ccccc1 [chlorobenzene] + CO
[1]
Settings | mass density, 293 K [kg/m3] | mass density, 303 K [kg/m3] | mass density, 313 K [kg/m3] | viscosity, 293 K [mPa·s] | viscosity, 303 K [mPa·s] | viscosity, 313 K [mPa·s]
x2 = 0 | 1105.8 ± 6.8 | 1095 ± 6.7 | 1082 ± 6.6 | 0.8432 ± 0.023 | 0.721 ± 0.02 | 0.6247 ± 0.017
x2 = 0.2808 | 1066.5 ± 6.4 | 1056 ± 6.3 | 1044 ± 6.1 | 0.8312 ± 0.023 | 0.7121 ± 0.02 | 0.6157 ± 0.017
x2 = 0.4676 | 1029.2 ± 5.9 | 1019 ± 5.8 | 1007 ± 5.7 | 0.8209 ± 0.023 | 0.6924 ± 0.019 | 0.6041 ± 0.017
x2 = 0.601 | 993.9 ± 5.5 | 983.7 ± 5.4 | 972.5 ± 5.3 | 0.8018 ± 0.022 | 0.6821 ± 0.019 | 0.5832 ± 0.016
x2 = 0.7009 | 960.5 ± 5.2 | 950.4 ± 5.1 | 939.4 ± 5 | 0.7699 ± 0.021 | 0.6572 ± 0.018 | 0.5569 ± 0.015
x2 = 0.7783 | 928.8 ± 4.8 | 918.9 ± 4.8 | 908.1 ± 4.7 | 0.7256 ± 0.02 | 0.6093 ± 0.017 | 0.5296 ± 0.015
x2 = 0.8405 | 898.5 ± 4.5 | 888.8 ± 4.5 | 878.3 ± 4.4 | 0.692 ± 0.019 | 0.5828 ± 0.016 | 0.51 ± 0.014
x2 = 0.8913 | 869.7 ± 4.3 | 860.1 ± 4.2 | 849.9 ± 4.1 | 0.6766 ± 0.019 | 0.5672 ± 0.016 | 0.4961 ± 0.014
x2 = 0.9335 | 842.3 ± 4 | 832.9 ± 3.9 | 822.9 ± 3.9 | 0.6424 ± 0.018 | 0.5401 ± 0.015 | 0.4701 ± 0.013
x2 = 0.9693 | 816.2 ± 3.8 | 806.8 ± 3.7 | 797.1 ± 3.6 | 0.6194 ± 0.017 | 0.528 ± 0.015 | 0.4591 ± 0.013

Brc1ccccc1 [bromobenzene]
[2]
Settings | mass density [kg/m3] | viscosity [mPa·s]
293 K | 1497 ± 12 | 1.164 ± 0.032
303 K | 1483 ± 12 | 0.9844 ± 0.027
313 K | 1467 ± 12 | 0.8786 ± 0.024

CO [methanol] + Brc1ccccc1
[1], x1 = 1
Settings | mass density [kg/m3] | viscosity [mPa·s]
293 K | 791.1 ± 3.5 | 0.591 ± 0.016
303 K | 781.9 ± 3.5 | 0.518 ± 0.014
313 K | 772.4 ± 3.4 | 0.45 ± 0.013

Brc1ccccc1 [bromobenzene] + CO
[1]
Settings | mass density, 293 K [kg/m3] | mass density, 303 K [kg/m3] | mass density, 313 K [kg/m3] | viscosity, 293 K [mPa·s] | viscosity, 303 K [mPa·s] | viscosity, 313 K [mPa·s]
x2 = 0 | 1497 ± 12 | 1483 ± 12 | 1467 ± 12 | 1.164 ± 0.032 | 0.9844 ± 0.027 | 0.8786 ± 0.024
x2 = 0.3528 | 1381 ± 11 | 1367 ± 10 | 1352 ± 10 | 1.124 ± 0.031 | 0.9306 ± 0.026 | 0.8142 ± 0.022
x2 = 0.5504 | 1280 ± 9.1 | 1267 ± 9 | 1253 ± 8.8 | 1.008 ± 0.028 | 0.8356 ± 0.023 | 0.7399 ± 0.02
x2 = 0.6775 | 1192 ± 7.9 | 1179 ± 7.8 | 1166 ± 7.6 | 0.8873 ± 0.024 | 0.742 ± 0.021 | 0.6444 ± 0.018
x2 = 0.7657 | 1114 ± 6.9 | 1102 ± 6.8 | 1089 ± 6.7 | 0.8144 ± 0.022 | 0.6962 ± 0.019 | 0.6019 ± 0.017
x2 = 0.8305 | 1045 ± 6.1 | 1033 ± 6 | 1021 ± 5.9 | 0.7619 ± 0.021 | 0.6467 ± 0.018 | 0.5686 ± 0.016
x2 = 0.8802 | 983 ± 5.4 | 972.1 ± 5.3 | 960.7 ± 5.2 | 0.7235 ± 0.02 | 0.617 ± 0.017 | 0.5451 ± 0.015
x2 = 0.9195 | 927.6 ± 4.8 | 917.2 ± 4.8 | 906.4 ± 4.7 | 0.686 ± 0.019 | 0.5891 ± 0.016 | 0.513 ± 0.014
x2 = 0.9552 | 871.4 ± 4.3 | 861.5 ± 4.2 | 851.1 ± 4.1 | 0.657 ± 0.018 | 0.5651 ± 0.016 | 0.49 ± 0.014
x2 = 0.9778 | 832.3 ± 3.9 | 822.8 ± 3.8 | 812.9 ± 3.8 | 0.6312 ± 0.017 | 0.5344 ± 0.015 | 0.4773 ± 0.013

CO [methanol]
[2]
Settings | mass density [kg/m3] | viscosity [mPa·s]
293 K | 791.1 ± 3.5 | 0.591 ± 0.016
303 K | 781.9 ± 3.5 | 0.518 ± 0.014
313 K | 772.4 ± 3.4 | 0.45 ± 0.013

CO [methanol] + Clc1ccccc1
[1], x1 = 1
Settings | mass density [kg/m3] | viscosity [mPa·s]
293 K | 791.1 ± 3.5 | 0.591 ± 0.016
303 K | 781.9 ± 3.5 | 0.518 ± 0.014
313 K | 772.4 ± 3.4 | 0.45 ± 0.013

Clc1ccccc1 [chlorobenzene]
[2]
Settings | mass density [kg/m3] | viscosity [mPa·s]
293 K | 1105.8 ± 6.8 | 0.8432 ± 0.023
303 K | 1095 ± 6.7 | 0.721 ± 0.02
313 K | 1082 ± 6.6 | 0.6247 ± 0.017
